Source: US7001905B2, “Substituted diarylamines as MEK inhibitors” (Warner-Lambert Company, priority 2000, dated 2006)

Molecular target: T1, MEK (Homo sapiens, UniProt Q02750)
T1 construct: no tag is given for the 2D mutant
Experiment: in vitro MEK assay
Format: biochemical
Description: For evaluation of direct MEK activity, 10 μg GST-MEK, is incubated in the presence of absence of test compound with 5 μg of a glutathione S-transferase fusion protein containing p44MAP kinase with a lysine to alanine mutation at position 71 (GST-MAPK-KA). This mutation eliminates kinase activity of MAPK, so only kinase activity attributed to the added MEK remains. Incubations are 15 minutes at 30° C. in a final volume of 50 μL containing 50 mM Tris (pH 7.5), […], 2, μM EGTA, and 10 μM [γ-^32P]ATP. The reaction is stopped by addition of Laemmli SDS sample buffer. Phosphorylated GST-MAPK-KA is resolved by electrophoresis on a 10% polyacrylamide gel. Radioactivity incorporated into GST-MAPK-KA is determined by autoradiography, and subsequent scintillation counting of excised bands.
Alternatively, an artificially activated MEK containing serine to glutamate mutations at positions 218 and 222 (GST-MEK-2E) is used. When these two sites are phosphorylated, MEK activity is increased. Phosphorylation of these sites can be mimicked by mutation of the serine residues to glutamate. For this assay, 5 μg GST-MEK-2E is incubated with 5 μg GST-MAPK-KA for 15 minutes at 30° C. in the same reaction buffer as described above. Reactions are terminated and analyzed as above.

T1 sequence (Q02750 whole entry S218D/S222D, form open): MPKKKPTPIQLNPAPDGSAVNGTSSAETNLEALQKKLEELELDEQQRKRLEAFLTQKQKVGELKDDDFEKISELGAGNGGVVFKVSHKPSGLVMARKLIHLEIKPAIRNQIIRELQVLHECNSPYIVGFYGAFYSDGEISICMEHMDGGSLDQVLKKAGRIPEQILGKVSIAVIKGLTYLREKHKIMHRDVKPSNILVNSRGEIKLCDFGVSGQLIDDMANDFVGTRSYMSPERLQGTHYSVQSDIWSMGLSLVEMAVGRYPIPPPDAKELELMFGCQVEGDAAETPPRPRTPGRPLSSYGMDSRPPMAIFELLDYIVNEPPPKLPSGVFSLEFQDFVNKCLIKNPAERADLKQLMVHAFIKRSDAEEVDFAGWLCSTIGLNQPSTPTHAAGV

| Structure (SMILES) | in vitro MEK assay: % inhibition @ 1 μM | IC50 |
| --- | --- | --- |
| Cc1cc(I)ccc1N1COC(=O)c2cc(C(=O)Nc3cc[nH]n3)c(F)c(F)c21 [Example 36, 7,8-Difluoro-1-(4-iodo-2-methyl-phenyl)-4-oxo-1,4-dihydro-2H-3,1-benzoxazine-6-carboxylic acid (1H-pyrazol-3-yl)-amide] | 60% | – |
| Cc1cc(I)ccc1N1COC(=O)c2cc(C(=O)Nc3cccnc3)c(F)c(F)c21 [Example 37, 7,8-Difluoro-1-(4-iodo-2-methyl-phenyl)-4-oxo-1,4-dihydro-2H-3,1-benzoxazine-6-carboxylic acid pyridin-3-ylamide] | 20% | – |
| Cc1cc(I)ccc1N1COC(=O)c2cc(C(=O)N3CCCC(O)C3)c(F)c(F)c21 (centres unmarked) [Example 38, 7,8-Difluoro-6-(3-hydroxy-piperidine-1-carbonyl)-1-(4-iodo-2-methyl-phenyl)-1,2-dihydro-3,1-benzoxazin-4-one] | 48% | – |
| Cc1cc(I)ccc1N1COC(=O)c2cc(C(=O)N3CCCC(CO)C3)c(F)c(F)c21 (centres unmarked) [Example 39, 7,8-Difluoro-6-(3-hydroxymethyl-piperidine-1-carbonyl)-1-(4-iodo-2-methyl-phenyl)-1,2-dihydro-3,1-benzoxazin-4-one] | 71% | – |
| Cc1cc(I)ccc1N1COC(=O)c2cc(C(=O)N3CCC(O)C3)c(F)c(F)c21 (centres unmarked) [Example 40, 7,8-Difluoro-6-(3-hydroxy-pyrrolidine-1-carbonyl)-1-(4-iodo-2-methyl-phenyl)-1,2-dihydro-3,1-benzoxazin-4-one] | 42% | – |
| Cc1cc(I)ccc1N1COC(=O)c2cc(C(=O)N3CCC(N4CCCC4)CC3)c(F)c(F)c21 [Example 41] | 7% | – |
| Cc1cc(I)ccc1N1COC(=O)c2cc(C(=O)NCCN3CCOCC3)c(F)c(F)c21 [Example 42, 7,8-Difluoro-1-(4-iodo-2-methyl-phenyl)-4-oxo-1,4-dihydro-2H-3,1-benzoxazine-6-carboxylic acid (2-morpholin-4yl-ethyl)-amide] | 15% | – |
| Cc1cc(I)ccc1N1COC(=O)c2cc(C(=O)N3CCC(O)CC3)c(F)c(F)c21 [Example 43, 7,8-Difluoro-6-(4-hydroxy-piperidine-1-carbonyl)1-(4-iodo-2-methyl-phenyl)-1,2-dihydro-3,1-benzoxazin-4-one] | 52% | – |
| Cc1cc(I)ccc1N1COC(=O)c2cc(C(=O)N3CCC(CCO)CC3)c(F)c(F)c21 [Example 44, 7,8-Difluoro-6-[4-(2-hydroxy-ethyl)-piperidine-1-carbonyl]-1-(4-iodo-2-methyl-phenyl)-1,2-dihydro-3,1-benzoxazin-4-one] | 69% | – |
| Cc1cc(I)ccc1N1COC(=O)c2cc(C(=O)Nc3ccc(Cl)nc3)c(F)c(F)c21 [Example 45] | 62% | – |
| COc1ccc(NC(=O)c2cc3c(c(F)c2F)N(c2ccc(I)cc2C)COC3=O)cn1 [Example 46, 7,8-Difluoro-1-(4-iodo-2-methyl-phenyl)-4-oxo-1,4-dihydro-2H-3,1-benzoxazine-6-carboxylic acid (6-methoxy-pyridin-3-yl)amide] | 43% | – |
| COc1ccc2[nH]cc(CCNC(=O)c3cc4c(c(F)c3F)N(c3ccc(I)cc3C)COC4=O)c2c1 [Example 47, 7,8-Difluoro-1-(4-iodo-2-methyl-2-phenyl)-4-oxo-1,4-dihydro-2H-3,1-benzoxazine-6-carboxylic acid [2-(5-methoxy-1H-indol-3-yl)ethyl]-amide] | 0% | – |
| COc1ccc2c(CCNC(=O)c3cc4c(c(F)c3F)N(c3ccc(I)cc3C)COC4=O)c[nH]c2c1 [Example 48, 7,8-Difluoro-1-(4-iodo-2-methyl-phenyl)-4-oxo-1,4-dihydro-2H-3,1-benzoxazine-6-carboxylic acid [2-(6-methoxy-1H-indol-3-yl)-ethyl]-amide] | 12% | – |
| Cc1cc(I)ccc1N1COC(=O)c2cc(C(=O)N(CCO)CCO)c(F)c(F)c21 [Example 49, 7,8-Difluoro-1-(4-iodo-2-methyl-phenyl)-4-oxo-1,4-dihydro-2H-3,1-benzoxazine-6-carboxylic acid bis-(2-hydroxy-ethyl)-amide] | 50% | – |
| Cc1cc(I)ccc1N1COC(=O)c2cc(C(=O)NCCc3c[nH]cn3)c(F)c(F)c21 [Example 50, 7,8-Difluoro-1-(4-iodo-2-methyl-phenyl)4-oxo-1,4-dihydro-2H-3,1-benzoxazine-6-carboxylic acid [2-(1H-imidazol4-yl)-ethyl]-amide] | 44% | – |
| Cc1cc(I)ccc1N1COC(=O)c2cc(C(=O)N3CCOCC3)c(F)c(F)c21 [Example 51, 7,8-Difluoro-1-(4-iodo-2-methyl-phenyl)-6-(morpholine-4-carbonyl)-1,2-dihydro-3,1-benzoxazin-4-one] | 72% | – |
| Cc1cc(I)ccc1N1COC(=O)c2cc(C(=O)NCCCn3ccnc3)c(F)c(F)c21 [Example 52, 7,8-Difluoro-1-(4-iodo-2-methyl-phenyl)-4-oxo-1,4-dihydro-2H-3,1-benzoxazine-6-carboxylic acid (3-imidazol-1-yl-propyl)amide] | 35% | – |
| Cc1cc(I)ccc1N1COC(=O)c2cc(C(=O)Nc3ccc(N(C)C)cc3)c(F)c(F)c21 [Example 53, 7,8-Difluoro-1-(4-iodo-2-methyl-phenyl)-4-oxo-1,4-dihydro-2H-3,1-benzoxazine-6-carboxylic acid (4-dimethylamino-phenyl)amide] | 61% | – |
| CCN1CCN(C(=O)c2cc3c(c(F)c2F)N(c2ccc(I)cc2C)COC3=O)CC1 [Example 54, 6-(4-Ethyl-piperazine-1-carbonyl)-7,8-difluoro-1-(4-iodo-2-methyl-phenyl)-1,2-dihydro-3,1-benzoxazin-4-one] | 56% | – |
| Cc1cc(I)ccc1N1COC(=O)c2cc(C(=O)N(C)CCc3c[nH]c4ccccc34)c(F)c(F)c21 [Example 55, 7,8-Difluoro-1-(4-iodo-2-methyl-phenyl)-4-oxo-1,4-dihydro-2H-3,1-benzoxazine-6-carboxylic acid [2-(1H-indol-3-yl)ethyl]-methyl-amide] | 41% | – |
| Cc1cc(I)ccc1N1COC(=O)c2cc(C(=O)N3CCNCC3)c(F)c(F)c21 [Example 56, 7,8-Difluoro-1-(4-iodo-2-methyl-phenyl)-6-(piperazine-1-carbonyl)-1,2-dihydro-3,1-benzoxazin-4-one] | 1% | – |
| Cc1cc(I)ccc1N1COC(=O)c2cc(C(=O)NCC3CCCO3)c(F)c(F)c21 (centres unmarked) [Example 57, 7,8-Difluoro-1-(4-iodo-2-methyl-phenyl)4-oxo-1,4-dihydro-2H-3,1-benzoxazine-6-carboxylic acid (tetrahydro-furan-2-ylmethyl)-amide] | 35% | – |
| Cc1cc(I)ccc1N1COC(=O)c2cc(C(=O)N3CCSC3)c(F)c(F)c21 [Example 58, 7,8-Difluoro-1-(4-iodo-2-methyl-phenyl)-6-(thiazolidine-3-carbonyl)-1,2-dihydro-3,1-benzoxzin-4-one] | 76% | – |
| Cc1cc(I)ccc1N1COC(=O)c2cc(C(=O)N3CCSCC3)c(F)c(F)c21 [Example 59, 7,8-Difluoro-1-(4-iodo-2-methyl-phenyl)-6-(thiomorpholine-4-carbonyl)-1,2-dihydro-3,1-benzoxzin-4-one] | 75% | – |
| Cc1cc(I)ccc1Nc1c(C(=O)O)cc(C(=O)N2CC[C@@H](O)C2)c(F)c1F [Example 61, 3,4-Difluoro-5-[1-((R)-3-hydroxy-pyrrolidin-1-yl)-methanoyl]-2-(4-iodo-2-methyl-phenylamino)-benzoic acid] | 75% | – |
| Cc1cc(I)ccc1Nc1c(C(=O)O)cc(C(=O)NCCCN2CCCC2=O)c(F)c1F [Example 62, 4,5-Difluoro-6-(4-iodo-2-methyl-phenylamino)-N-[3-(2-oxo-pyrrolidin-1-yl)-propyl]-isophthalamic acid] | 78% | – |
| Cc1cc(I)ccc1Nc1c(C(=O)O)cc(C(=O)N2CCN(C)CC2)c(F)c1F [Example 64, 3,4-Difluoro-2-(4-iodo-2-methyl-phenylamino)-5-[1-(4-methyl-piperazin-1-yl)-methanoyl]-benzoic acid] | 57% | – |
| Cc1cc(I)ccc1Nc1c(C(=O)O)cc(C(=O)NCCOCCO)c(F)c1F [Example 65, 4,5-Difluoro-N-[2-(2-hydroxy-ethoxy)-ethyl]-6-(4-iodo-2-methyl-phenylamino)-isophthalamic acid] | 63% | 1.38 µM |
| Cc1cc(I)ccc1Nc1c(C(=O)O)cc(C(=O)NCCC2CCCN2C)c(F)c1F (centres unmarked) [Example 66, 4,5-Difluoro-6-(4-iodo-2-methyl-phenylamino)-N-[2-(1-methyl-pyrrolidin-2-yl)-ethyl]-isophthalamic acid] | 14% | – |
| Cc1cc(I)ccc1Nc1c(C(=O)O)cc(C(=O)NCCc2ccccn2)c(F)c1F [Example 67, 4,5-Difluoro-6-(4-iodo-2-methyl-phenylamino)-N-(2-pyridin-2-yl-ethyl)-isophthalamic acid] | 81% | 3.3 µM |
